From patent US9978954B2, “Benzobis (thiadiazole) derivative, ink comprising same, and organic electronic device comprising same” (UBE INDUSTRIES, LTD., priority 2013, dated 2018)

Assay: Evaluation of solubility in organic solvents (visual observation of complete dissolution)
Format: physicochemical
Experimental: [Evaluation of Solubility]
The evaluation of the solubility of the synthesized compound was conducted by the following method.
About 2-3 mg of the compound was precisely weighed, and each solvent was added to the compound such that a predetermined concentration of the solute (0.5 wt %, 0.3 wt %, 0.2 wt %, 0.1 wt %, 0.05 wt %, or 0.03 wt %) was reached. The resultant mixture was stirred for 30 minutes at a predetermined temperature, and then it was evaluated by visual appearance observation whether or not the solute (synthesized compound) was completely dissolved in the solvent, which was the result of the evaluation of the solubility. As the solvent, chloroform (boiling point 61° C.), toluene (boiling point 111° C.), xylene (boiling point 144° C.), mesitylene (boiling point 165° C.), chlorobenzene (boiling point 130° C.), para-chlorotoluene (boiling point 162° C.), and ortho-dichlorobenzene (boiling point 181° C.) were used.

[1] = chloroform, 25° C. (room temperature)
[2] = 1-methylnaphthalene, 25° C. (room temperature)

solubility (solute concentration completely dissolved) (chlorobenzene, 80° C.) [wt %] | solubility (solute concentration completely dissolved) (chloroform, 60° C.) [wt %] | solubility (solute concentration completely dissolved) (ortho-dichlorobenzene, 60° C.) [wt %] | solubility (solute concentration completely dissolved) (ortho-dichlorobenzene, 80° C.) [wt %] | solubility (solute concentration completely dissolved) (1-methylnaphthalene, 60° C.) [wt %] | also measured | SMILES
≥ 0.3 | ≥ 0.2 | ≥ 0.3 |  |  | solubility (solute concentration completely dissolved) [1]: ≥ 0.1 wt %; solubility (solute concentration completely dissolved) (para-chlorotoluene, 100° C.): ≥ 0.3 wt % | CCCCCCCCc1cc(-c2ccc(-c3c4c(c(-c5ccc(-c6ccc(C#N)c(CCCCCCCC)c6)s5)c5nsnc35)N=S=N4)s2)ccc1C#N [Compound (C14), 4,8-bis[5-(4-cyano-3-octylphenyl)thiophene-2-yl]benzo[1,2-c:4,5-c′]bis[1,2,5]thiadiazole]
 | ≥ 0.2 | ≥ 0.3 |  |  | solubility (solute concentration completely dissolved) (chlorobenzene, 60° C.): ≥ 0.3 wt %; solubility (solute concentration completely dissolved) [1]: ≥ 0.1 wt %; solubility (solute concentration completely dissolved) (para-chlorotoluene, 80° C.): ≥ 0.3 wt % | CCCCCCCCCc1cc(-c2ccc(-c3c4c(c(-c5ccc(-c6ccc(C#N)c(CCCCCCCCC)c6)s5)c5nsnc35)N=S=N4)s2)ccc1C#N [Compound (C15), 4,8-bis[5-(4-cyano-3-nonylphenyl)thiophene-2-yl]benzo[1,2-c:4,5-c′]bis[1,2,5]thiadiazole]
≥ 0.3 | ≥ 0.2 |  | ≥ 0.3 |  | solubility (solute concentration completely dissolved) (para-chlorotoluene, 80° C.): ≥ 0.3 wt % | CCCCCCCCCCc1cc(-c2ccc(-c3c4c(c(-c5ccc(-c6ccc(C#N)c(CCCCCCCCCC)c6)s5)c5nsnc35)N=S=N4)s2)ccc1C#N [Compound (C16), 4,8-bis[5-(4-cyano-3-decylphenyl)thiophene-2-yl]benzo[1,2-c:4,5-c′]bis[1,2,5]thiadiazole]
≥ 0.3 | ≥ 0.2 | ≥ 0.3 |  |  | solubility (solute concentration completely dissolved) (para-chlorotoluene, 80° C.): ≥ 0.3 wt %; solubility (solute concentration completely dissolved) (xylene, 100° C.): ≥ 0.3 wt % | CCCCCCCCCCCCc1cc(-c2ccc(-c3c4c(c(-c5ccc(-c6ccc(C#N)c(CCCCCCCCCCCC)c6)s5)c5nsnc35)N=S=N4)s2)ccc1C#N [Compound (C17), 4,8-bis[5-(4-cyano-3-dodecylphenyl)thiophene-2-yl]benzo[1,2-c:4,5-c′]bis[1,2,5]thiadiazole]
 | ≥ 0.2 |  | ≥ 0.3 |  | solubility (solute concentration completely dissolved) (1-methylnaphthalene, 80° C.): ≥ 0.3 wt %; solubility (solute concentration completely dissolved) (chlorobenzene, 100° C.): ≥ 0.3 wt % | CCCCCCCCCCCCCCc1cc(-c2ccc(-c3c4c(c(-c5ccc(-c6ccc(C#N)c(CCCCCCCCCCCCCC)c6)s5)c5nsnc35)N=S=N4)s2)ccc1C#N [Compound (C18), 4,8-bis[5-(4-cyano-3-tetradecylphenyl)thiophene-2-yl]benzo[1,2-c:4,5-c′]bis[1,2,5]thiadiazole]
≥ 0.3 | ≥ 0.2 |  | ≥ 0.3 |  | solubility (solute concentration completely dissolved) [2]: ≥ 0.3 wt % | CCCCCCCCCCCCCCCCc1cc(-c2ccc(-c3c4c(c(-c5ccc(-c6ccc(C#N)c(CCCCCCCCCCCCCCCC)c6)s5)c5nsnc35)N=S=N4)s2)ccc1C#N [Compound (C19), 4,8-bis[5-(4-cyano-3-hexadecylphenyl)thiophene-2-yl]benzo[1,2-c:4,5-c′]bis[1,2,5]thiadiazole]
 | ≥ 0.1 |  | ≥ 0.3 |  | solubility (solute concentration completely dissolved) (1-methylnaphthalene, 100° C.): ≥ 0.3 wt %; solubility (solute concentration completely dissolved) (chlorobenzene, 100° C.): ≥ 0.3 wt % | CCCCCCCCCCCCCCCCCCc1cc(-c2ccc(-c3c4c(c(-c5ccc(-c6ccc(C#N)c(CCCCCCCCCCCCCCCCCC)c6)s5)c5nsnc35)N=S=N4)s2)ccc1C#N [Compound (C20), 4,8-bis[5-(4-cyano-3-octadecylphenyl)thiophene-2-yl]benzo[1,2-c:4,5-c′]bis[1,2,5]thiadiazole]
≥ 0.3 | ≥ 0.2 |  | ≥ 0.3 |  | solubility (solute concentration completely dissolved) (1-methylnaphthalene, 80° C.): ≥ 0.3 wt % | CCCC(C)CCc1cc(-c2ccc(-c3c4c(c(-c5ccc(-c6ccc(C#N)c(CCC(C)CCC)c6)s5)c5nsnc35)N=S=N4)s2)ccc1C#N (stereo not drawn) [Compound (C21), 4,8-bis[5-(4-cyano-3-(3-methylhexyl)phenyl)thiophene-2-yl]benzo[1,2-c:4,5-c′]bis[1,2,5]thiadiazole]
 |  |  |  |  | solubility (solute concentration completely dissolved) [2]: ≥ 0.1 wt %; solubility (solute concentration completely dissolved) [1]: ≥ 0.1 wt %; solubility (solute concentration completely dissolved) (ortho-dichlorobenzene, 25° C.): ≥ 0.1 wt %; solubility (solute concentration completely dissolved) (toluene, 25° C.): ≥ 0.3 wt % | CCCCCCc1cc(-c2ccc(-c3c4c(c(-c5ccc(-c6cc(CCCCCC)c(C#N)c(CCCCCC)c6)s5)c5nsnc35)N=S=N4)s2)cc(CCCCCC)c1C#N [Compound (C22), 4,8-bis[5-(4-cyano-3,5-dihexylphenyl)thiophene-2-yl]benzo[1,2-c:4,5-c′]bis[1,2,5]thiadiazole]
 | ≥ 0.2 | ≥ 0.3 |  | ≥ 0.3 | solubility (solute concentration completely dissolved) (mesitylene, 60° C.): ≥ 0.3 wt %; solubility (solute concentration completely dissolved) (toluene, 60° C.): ≥ 0.3 wt % | CCCCCCCCc1cc(-c2ccc(-c3c4c(c(-c5ccc(-c6ccc(C(F)(F)F)c(CCCCCCCC)c6)s5)c5nsnc35)N=S=N4)s2)ccc1C(F)(F)F [Compound (C24), 4,8-bis[5-(3-octyl-4-(trifluoromethyl)phenyl)thiophene-2-yl]benzo[1,2-c:4,5-c′]bis[1,2,5]thiadiazole]
 | ≥ 0.2 | ≥ 0.3 |  | ≥ 0.3 | solubility (solute concentration completely dissolved) (mesitylene, 60° C.): ≥ 0.3 wt %; solubility (solute concentration completely dissolved) (toluene, 60° C.): ≥ 0.3 wt % | CCCCCCCCc1ccc(-c2ccc(-c3c4c(c(-c5ccc(-c6ccc(CCCCCCCC)c(C(F)(F)F)c6)s5)c5nsnc35)N=S=N4)s2)cc1C(F)(F)F [Compound (C25), 4,8-bis[5-(4-octyl-3-(trifluoromethyl)phenyl)thiophene-2-yl]benzo[1,2-c:4,5-c′]bis[1,2,5]thiadiazole]
 |  | ≥ 0.3 |  | ≥ 0.3 | solubility (solute concentration completely dissolved) [1]: ≥ 0.2 wt %; solubility (solute concentration completely dissolved) (mesitylene, 80° C.): ≥ 0.3 wt %; solubility (solute concentration completely dissolved) (toluene, 80° C.): ≥ 0.3 wt % | CCCCCCCCc1ccc(-c2ccc(-c3c4c(c(-c5ccc(-c6ccc(CCCCCCCC)c(C#N)c6)s5)c5nsnc35)N=S=N4)s2)cc1C#N [Compound (C26), 4,8-bis[5-(3-cyano-4-octylphenyl)thiophene-2-yl]benzo[1,2-c:4,5-c′]bis[1,2,5]thiadiazole]
 | ≥ 0.1 | ≥ 0.3 |  | ≥ 0.3 | solubility (solute concentration completely dissolved) (mesitylene, 60° C.): ≥ 0.3 wt %; solubility (solute concentration completely dissolved) (toluene, 60° C.): ≥ 0.3 wt % | CCCCCCCCCCCCc1cc(-c2ccc(-c3c4c(c(-c5ccc(-c6ccc(C(F)(F)F)c(CCCCCCCCCCCC)c6)s5)c5nsnc35)N=S=N4)s2)ccc1C(F)(F)F [Compound (C27), 4,8-bis[5-(3-dodecyl-4-(trifluoromethyl)phenyl)thiophene-2-yl]benzo[1,2-c:4,5-c′]bis[1,2,5]thiadiazole]
 |  |  | ≥ 0.3 |  | solubility (solute concentration completely dissolved) (1-methylnaphthalene, 100° C.): ≥ 0.3 wt %; solubility (solute concentration completely dissolved) (chloroform, 80° C.): ≥ 0.1 wt %; solubility (solute concentration completely dissolved) (mesitylene, 100° C.): ≥ 0.3 wt %; solubility (solute concentration completely dissolved) (toluene, 100° C.): ≥ 0.3 wt % | CCCCCCCCCCCCc1ccc(-c2ccc(-c3c4c(c(-c5ccc(-c6ccc(CCCCCCCCCCCC)c(C(F)(F)F)c6)s5)c5nsnc35)N=S=N4)s2)cc1C(F)(F)F [Compound (C28), 4,8-bis[5-(4-dodecyl-3-(trifluoromethyl)phenyl)thiophene-2-yl]benzo[1,2-c:4,5-c′]bis[1,2,5]thiadiazole]
 | ≥ 0.2 |  | ≥ 0.3 | ≥ 0.3 | solubility (solute concentration completely dissolved) (mesitylene, 80° C.): ≥ 0.3 wt %; solubility (solute concentration completely dissolved) (toluene, 80° C.): ≥ 0.3 wt % | CCCCC(CC)Cc1cc(-c2ccc(-c3c4c(c(-c5ccc(-c6ccc(C(F)(F)F)c(CC(CC)CCCC)c6)s5)c5nsnc35)N=S=N4)s2)ccc1C(F)(F)F (stereo not drawn) [Compound (C30)]
